Key:
[1] = Inhibition of P-gp mediated doxorubicin resistance in human SW620/AD300 cells overexpressing P-gp in presence of doxorubicin measured after 52 hrs by MTT assay
[2] = Inhibition of P-gp mediated doxorubicin resistance in human SW620/AD300 cells overexpressing P-gp measured after 48 hrs by MTT assay

SMILES	IC50 [1]	IC50 [2]
C[C@H]1O[C@H](CC(=O)O)Cc2c1c(O)c1c3c(c4n(c23)[C@@H]([C@@H](C)O)CC4)C=CC1=O	1530 nM	
C[C@H]1O[C@]2(C)CC(=O)O[C@]2(C)c2c1c(O)c1c3c(c4n(c23)[C@@H]([C@@H](C)O)CC4)C=CC1=O	7580 nM	
COC(=O)C[C@H]1Cc2c(c(O)c3c4c(c5n(c24)[C@H]([C@@H](C)O)CC5)C=CC3=O)[C@H](C)O1	1200 nM	
C[C@@H]1OC(CC(=O)O)=Cc2c1c(O)c1c3c(c4n(c23)[C@H]([C@@H](C)O)CC4)C=CC1=O	1010 nM	
C[C@H]1OC(CC(=O)O)=Cc2c1c(O)c1c3c(c4n(c23)[C@H]([C@@H](C)O)CC4)C=CC1=O	1440 nM	
C[C@@H]1O[C@@H](CC(=O)O)C(=O)c2c1c(O)c1c3c(c4n(c23)[C@H]([C@@H](C)O)CC4)C=CC1=O	1480 nM	
C[C@@H](O)[C@@H]1CCc2c3c4c(c(O)c(O)c(C[C@@H](O)CC(=O)O)c4n21)C(=O)C=C3	4490 nM	
C[C@H]1Oc2c(O)c3c4c(c5n(c4c2C[C@H](CC(=O)O)O1)[C@H]([C@@H](C)O)CC5)C=CC3=O	5040 nM	
COc1cccc2c1C(=O)c1c(O)c3c(c(O)c1C2=O)C[C@@](O)(C(=O)CO)C[C@@H]3O[C@H]1C[C@H](N)[C@H](O)[C@H](C)O1 [Adriamycin]		5750 nM

Source: BindingDB's records for PubMed 35073486 (The University of Queensland, 2022)
